Results on one compound are retold here after ChEMBL document CHEMBL1201862, “PubChem BioAssay data set” (2004).

Calls of active or inactive are those of the source. Where only a bound is given, the exact number is not on record here.

The target of one assay is Beta-galactosidase (Escherichia coli, UniProt Q8VNN2). Kind of assay: beta-galactosidase enzyme inhibitors and activators, dose response, artefact control for CCR6 antagonist project, biochemical, E. coli enzyme, set 3 (AID 504712). It counts as functional.
Another assay has as its system INS1. Kind of assay: beta cell apoptosis inhibitors, cytokine rescue, dose response, luminescence, retest (AID 449756).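 Note: cell death triggered by IL-1 beta plus TNF-alpha plus IFN-gamma mixture; protective hits raise ATP signal compared with cytokine alone wells.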 Particulars: Rattus norvegicus. In kind it is functional, cell-based.
Assay [1] addresses Heat shock protein HSP 90-alpha (Homo sapiens, UniProt P07900). Kind of assay: Luminescence-based dose response biochemical high throughput screening assay for inhibitors of the Heat Shock Protein 90 (HSP90). [Related pubchem assays: 1831 (Summary AID.), 1846 (Confirmation screen.), 1789 (Primary screen.)].
For another assay, the target named is T1, Protein RecA (Mycobacterium tuberculosis, UniProt P9WHJ3).
T1 sequence (P9WHJ3 whole entry): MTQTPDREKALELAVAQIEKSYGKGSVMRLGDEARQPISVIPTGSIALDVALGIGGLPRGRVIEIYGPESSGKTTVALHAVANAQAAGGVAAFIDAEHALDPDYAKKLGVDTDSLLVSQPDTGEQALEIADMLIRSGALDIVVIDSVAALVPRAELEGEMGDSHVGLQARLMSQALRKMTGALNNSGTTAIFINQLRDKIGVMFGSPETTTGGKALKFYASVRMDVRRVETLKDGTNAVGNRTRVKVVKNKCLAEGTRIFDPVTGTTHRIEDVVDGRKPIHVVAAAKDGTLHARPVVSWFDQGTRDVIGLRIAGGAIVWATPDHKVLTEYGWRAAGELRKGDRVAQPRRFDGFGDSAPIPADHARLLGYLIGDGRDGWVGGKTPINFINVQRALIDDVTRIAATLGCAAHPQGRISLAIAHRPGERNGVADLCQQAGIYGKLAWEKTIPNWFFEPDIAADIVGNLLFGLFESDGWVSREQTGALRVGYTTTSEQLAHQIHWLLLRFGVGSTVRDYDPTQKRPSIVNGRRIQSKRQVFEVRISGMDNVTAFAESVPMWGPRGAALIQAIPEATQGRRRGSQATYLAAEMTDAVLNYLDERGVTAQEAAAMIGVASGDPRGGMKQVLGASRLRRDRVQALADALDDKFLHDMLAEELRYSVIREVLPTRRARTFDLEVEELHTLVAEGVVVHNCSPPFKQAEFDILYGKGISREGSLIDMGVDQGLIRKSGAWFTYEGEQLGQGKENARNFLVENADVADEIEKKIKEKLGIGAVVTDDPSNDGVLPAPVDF
Nature of the assay: Fluorescence Cell-Free Homogeneous Dose Retest to Identify Inhibitors of RecA-Intein Splicing Activity. [Related pubchem assays (depositor defined):AID2097, AID2223, AID489010, AID492950]. It counts as functional.

The nature of assay [2]: NIH-3T3 fibroblast cytotoxicity, dose response, cytotoxicity control, cell-based, fluorescence, Alamar Blue, secondary assay (AID 2327).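 Note: NIH-3T3 mouse fibroblasts cultured with fluconazole at 8 µg/mL.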 In kind it is functional.
Assay [3] in a line: growth suppression of beta-catenin-knockout colon cells, dose response, cell-based, HCT116, human colon tumor (AID 1045).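 Note: HCT116 colon tumor cells with beta catenin knocked out; cells exposed to compound for 60 hours.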 In kind it is functional.
For assay [4], the target named is T2, Heat shock factor protein 1 (Mus musculus, UniProt P38532).
T2 sequence (P38532 whole entry): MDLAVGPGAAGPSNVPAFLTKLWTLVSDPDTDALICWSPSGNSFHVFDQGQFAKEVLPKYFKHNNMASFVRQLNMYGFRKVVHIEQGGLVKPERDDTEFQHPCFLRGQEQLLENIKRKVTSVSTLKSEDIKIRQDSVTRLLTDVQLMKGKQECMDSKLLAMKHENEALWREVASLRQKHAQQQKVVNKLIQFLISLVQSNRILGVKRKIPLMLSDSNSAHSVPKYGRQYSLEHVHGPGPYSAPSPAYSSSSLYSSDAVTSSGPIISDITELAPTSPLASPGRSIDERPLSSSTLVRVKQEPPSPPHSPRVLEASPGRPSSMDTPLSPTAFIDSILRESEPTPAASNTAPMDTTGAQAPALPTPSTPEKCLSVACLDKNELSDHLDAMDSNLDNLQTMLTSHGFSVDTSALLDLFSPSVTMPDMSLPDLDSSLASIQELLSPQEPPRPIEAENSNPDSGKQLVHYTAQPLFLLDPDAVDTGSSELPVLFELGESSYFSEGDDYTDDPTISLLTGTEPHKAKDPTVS
Kind of assay: inhibition of MG132-induced HSE-luciferase signal, confirmation, cell-based, NIH3T3, luminescence, dose retest (AID 2382).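 Note: NIH3T3 fibroblasts with HSF1-driven luciferase reporter stressed by proteasome inhibitor MG132; luminescence from HSF1-driven luciferase expression after 8 hours of MG132 stress.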 It counts as functional.

Assay [5] in a line: cytotoxicity toward NIH3T3 fibroblasts, dose response, counter-screen, cell-based, ATP luminescence, mouse fibroblasts (AID 2010).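 Note: cells exposed to compound for about 90 hours before reading.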 In kind it is functional.
Assay [6] is described as follows: inhibitors of intracellular T. cruzi replication, confirmation, NIH3T3 host cells, beta-gal luminescence (AID 2044).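 Note: intracellular parasites grown in NIH/3T3 mouse fibroblasts as host cells; luminescent beta-galactosidase reporter signal from transgenic T. cruzi replicating inside host cells; inhibitors lower the luminescence signal.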 In kind it is functional, cell-based.
A further assay concerns the target Nonstructural protein 1 (Influenza A virus, UniProt Q194T2). In kind it is functional, Influenza A virus (A/California/07/2009(H1N1)).

Sequence of Nonstructural protein 1 (Q194T2 whole entry): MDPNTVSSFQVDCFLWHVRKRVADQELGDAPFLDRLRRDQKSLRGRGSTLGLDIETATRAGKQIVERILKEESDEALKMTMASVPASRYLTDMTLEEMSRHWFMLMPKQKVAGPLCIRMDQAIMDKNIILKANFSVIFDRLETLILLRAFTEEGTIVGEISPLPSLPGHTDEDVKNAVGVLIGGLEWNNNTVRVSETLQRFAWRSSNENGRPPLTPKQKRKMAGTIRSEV
Sequence of Beta-galactosidase (Q8VNN2 whole entry): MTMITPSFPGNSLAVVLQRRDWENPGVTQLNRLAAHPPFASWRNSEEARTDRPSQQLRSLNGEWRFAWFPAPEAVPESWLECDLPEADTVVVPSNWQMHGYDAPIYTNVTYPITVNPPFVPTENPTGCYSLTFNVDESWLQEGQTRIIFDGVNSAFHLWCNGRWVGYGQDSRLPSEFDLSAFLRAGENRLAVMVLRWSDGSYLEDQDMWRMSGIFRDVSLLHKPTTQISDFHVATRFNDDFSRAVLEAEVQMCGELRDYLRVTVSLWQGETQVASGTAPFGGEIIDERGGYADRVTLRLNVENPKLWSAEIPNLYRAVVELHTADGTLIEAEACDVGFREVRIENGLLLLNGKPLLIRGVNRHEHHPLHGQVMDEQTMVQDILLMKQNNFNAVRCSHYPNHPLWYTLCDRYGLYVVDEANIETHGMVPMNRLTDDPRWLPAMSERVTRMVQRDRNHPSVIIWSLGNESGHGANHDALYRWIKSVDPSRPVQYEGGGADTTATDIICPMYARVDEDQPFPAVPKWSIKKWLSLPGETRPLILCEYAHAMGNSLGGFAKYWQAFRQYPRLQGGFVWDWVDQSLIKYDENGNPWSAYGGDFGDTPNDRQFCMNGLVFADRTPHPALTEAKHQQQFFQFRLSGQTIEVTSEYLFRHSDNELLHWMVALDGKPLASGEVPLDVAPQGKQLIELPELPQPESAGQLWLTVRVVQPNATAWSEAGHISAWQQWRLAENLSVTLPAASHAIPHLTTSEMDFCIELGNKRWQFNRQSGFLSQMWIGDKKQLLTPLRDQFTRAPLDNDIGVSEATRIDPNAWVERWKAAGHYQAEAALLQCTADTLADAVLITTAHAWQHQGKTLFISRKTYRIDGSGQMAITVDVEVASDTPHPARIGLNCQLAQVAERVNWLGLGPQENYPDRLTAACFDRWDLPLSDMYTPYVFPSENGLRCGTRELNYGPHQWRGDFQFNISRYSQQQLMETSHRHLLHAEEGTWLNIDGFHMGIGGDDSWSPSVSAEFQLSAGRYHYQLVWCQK

Turning to `O=C1C(Nc2ccccc2)=C/C(=N/S(=O)(=O)c2cccs2)c2ccccc21`, the IC50 was > 66600 nM (inactive) on Beta-galactosidase, 348 nM (active) in [1] and 9040 nM (active) on Nonstructural protein 1. Moreover, the half-maximal activity concentration (AC50) with INS1 was 907 nM (active). Also, the EC50 at Protein RecA is 143 nM (active); in [2], 2660 nM (inconclusive); in [3], 4630 nM (active); in assay [4] it was 1090 nM (active); in [5], 1290 nM (active); in assay [6], 1140 nM (active).
